Measurements reported in PubChem BioAssay AID2060491 (Molecular Pharmacology Branch, DTP, NCI, 2025).
“And” between values parts separate entries of the source, which are not always exact repeats. Equal entries are not always repeated.

System: 857933-349-R-J2-PDC complex spheroids, viability
Assay: Anticancer human tumor 857933-349-R-J2-PDC patient-derived colon adenocarcinoma cell line growth inhibition [GQUAD]
Conditions: for viability, T/C: stronger effect = lower value; for IC50: curve of compound
From the text: DNA G-quadruplex Stabilizer Agents in Combinations in Complex Spheroids
A high-throughput screen of multi-cell type tumor spheroids was designed to identify active combinations of DNA G-quadruplex stabilizer agents and targeted small molecules. Complex spheroids include a stromal component modeled by human endothelial cells (HUVEC) and fibroblasts modeled by human mesenchymal stem cells (MSCs). The concentration ranges selected for each drug and investigational agent were based upon clinically achievable concentrations if the clinical Cmax of the agent was known.
Compounds. The drugs and investigational agents: pidnarulex (CX-5461; NSC782164), APTO-253 (NSC789042), BRACO-19 (NSC847499), peposertib (NSC802822), ceralasertib (NSC780249), elimusertib (NSC800525), camonsertib (NSC841442), AZD-1390 (NSC803789), olaparib (NSC753686), talazoparib (NSC767125), ART-558 (NSC835418), sotorasib (NSC818433), MRTX-1133 (NSC836407), SN-38 (NSC673596), topotecan (NSC609699), etoposide (NSC141540), doxorubicin (NSC123127), gemcitabine (NSC613327), 5-fluorouracil (NSC19893), paclitaxel (NSC125973), vemurafenib (NSC761431), panobinostat (NSC761190), R-306465 (JNJ-16241199; NSC773264), adavosertib (NSC754352), TP-3654 (NSC805149), carboplatin (NSC241240), KSQ-4279 (NSC840948), and staurosporine (NSC755774) were obtained from the National Cancer Institute (NCI) Developmental Therapeutics Program Chemical Repository (34). The FDA-approved anticancer drug set is available from the NCI Developmental Therapeutics Program. […] The stock solutions were prepared in dimethyl sulfoxide (DMSO, Sigma-Aldrich, St. Louis, MO, cat. D2650) at 800-fold the tested concentration and stored at -70 degrees C prior to their use. All drugs and investigational agents were tested over a range starting from a high concentration at or near the clinical Cmax and decreasing in half-log increments. If the clinical Cmax for an agent had not been determined, the highest concentration tested was 10 microM.
2.3 Cell Culture. All cells were maintained in an incubator at 37 degrees C and 5% CO2 with 95% humidity. The PDC lines were cultured according to standard operating procedures established by the NCI PDMR. All PDCs were thawed and cultured in Matrigel-coated flasks prepared with a working solution of 1X Ham's F-12 nutrient mix, without supplementation (Invitrogen, cat. 11765054), 100 U/mL penicillin-streptomycin (Invitrogen, cat. 15140122), and 2.5% Matrigel (Corning Inc., cat. 354248) for the first three passages. The 857933-349-R-J2-PDC line was cultured in 6C/Colon 1B media, which includes advanced DMEM/F-12 (Thermo Fisher Scientific, cat. 12634028), 10 mM HEPES (Thermo Fisher Scientific, cat. 15630080), 1X GlutaMAX supplement (Thermo Fisher Scientific, cat. 35050061), 0.1 mg/mL primocin (InvivoGen, cat. ant-pm-2), 10% defined fetal bovine serum, heat inactivated (HyClone Laboratories Inc., cat. SH30070.03HI), 50% L-WRN conditioned media (ATCC, cat. CRL-3276), 1.25 mM N-Acetyl-L-cysteine (Sigma-Aldrich, cat. A9165), 10 mM nicotinamide (Sigma-Aldrich, cat. N0636), 1X B-27 supplement (Thermo Fisher Scientific, cat. 17504044), 1X N-2 supplement (Thermo Fisher Scientific, cat. 17502048), 10 microM Y-27632 dihydrochloride (Tocris Bioscience, cat. 1254), and 50 ng/mL human EGF recombinant protein (Thermo Fisher Scientific, cat. PHG0311). The 485176-168-R4-J1-PDC line was cultured in Panc media, which includes all 6C/Colon 1B media components plus 100 ng/mL human FGF-10 (Thermo Fisher Scientific, cat. 100-26), 500 nM SB-431542 (Selleckchem, cat. S1067), and gastrin (Tocris, cat. 3006).
[…]
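Note: spheroids exposed to compounds for one week before readout.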
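Throughout, for viability, T/C: percent viability relative to vehicle DMSO wells taken as 100%.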

SMILES	IC50	viability, T/C (compound 0.0316 µM)	viability, T/C (compound 0.1 µM)	viability, T/C (compound 0.316 µM)	viability, T/C (compound 1 µM)	viability, T/C (compound 3.16 µM)	viability, T/C (compound 10 µM)
CC(=O)O[C@H]1C(=O)[C@@]2(C)[C@H]([C@H](OC(=O)c3ccccc3)[C@]3(O)C[C@H](OC(=O)[C@H](O)[C@@H](NC(=O)c4ccccc4)c4ccccc4)C(C)=C1C3(C)C)[C@]1(OC(C)=O)CO[C@@H]1C[C@@H]2O	34.2 nM and 68.2 nM and < 31.6 nM	52.5% and 76.2% and 43.1%	16.1% (2×) and 36.9%	11.9% and 21.4% and 7.97%	13.3% and 23.7% and 9.54%	12% and 23.8% and 9%	13.6% and 25.8% and 10.8%
CCCS(=O)(=O)Nc1ccc(F)c(C(=O)c2c[nH]c3ncc(-c4ccc(Cl)cc4)cc23)c1F	5230 nM and 5490 nM and 5700 nM	104% and 111% and 98.5%	97.2% and 102% and 92%	97.4% and 105% and 95.5%	102% and 101% and 96.5%	84.9% and 90.6% and 95.8%	4.82% and 5.71% and 6.52%
COc1cccc2c1C(=O)c1c(O)c3c(c(O)c1C2=O)CC(O)(C(=O)CO)CC3OC1CC(N)C(O)C(C)O1 (stereo not given)	415 nM and 751 nM and 277 nM	84.6% and 101% and 86.6%	60% and 94.5% and 51.8%	57.6% and 71.5% and 49.7%	43.2% and 45.9% and 44.8%	7.65% and 8.98% and 6.13%	0.27% and 0.59% and 0.13%
Nc1ccn(C2OC(CO)C(O)C2(F)F)c(=O)n1 (stereo not given)	105 nM and 386 nM and 161 nM	75.3% and 98.5% and 97.2%	43.2% and 80.9% and 48.4%	45.5% and 58.7% and 54.6%	12.3% and 22.7% and 10.3%	8.31% and 14.9% and 6.52%	6.59% and 14.8% and 5.26%
O=C(NO)c1cnc(N2CCN(S(=O)(=O)c3ccc4ccccc4c3)CC2)nc1	1490 nM and 1480 nM and 570 nM	112% and 103% and 107%	105% and 103% and 92.6%	104% and 103% and 82.3%	75.6% and 75% and 19.8%	0.92% and 0.99% and 0.08%	0.38% and 0.52% and 0.08%
O=c1[nH]cc(F)c(=O)[nH]1	1950 nM and 2010 nM and 8270 nM	105% and 101% and 108%	88% and 103% and 95.2%	99.2% and 102% and 99.4%	69.5% and 66.1% and 91.1%	35.9% and 40.5% and 63.2%	22.8% and 19.8% and 47.5%

More lines, main results first:

IC50	SMILES	viability, T/C (compound 0.0316 µM)	viability, T/C (compound 0.1 µM)	viability, T/C (compound 0.316 µM)	viability, T/C (compound 1 µM)	viability, T/C (compound 3.16 µM)	viability, T/C (compound 10 µM)
> 10000 nM	C#Cc1c(F)ccc2cc(O)cc(-c3ncc4c(N5CC6CCC(C5)N6)nc(OCC56CCCN5CC(F)C6)nc4c3F)c12 (stereo not given)	94.6% and 101% and 111%	93.3% and 94.7% and 99.7%	93.6% and 91.5% and 99.1%	69.2% and 83.1% and 96.8%	75.5% and 70.2% and 97.1%	70% and 66.5% and 97.9%
1640 nM and 1800 nM and 945 nM	C=CCn1c(=O)c2cnc(Nc3ccc(N4CCN(C)CC4)cc3)nc2n1-c1cccc(C(C)(C)O)n1	102% and 105% and 106%	99.4% and 100% and 96.3%	95.1% and 97.1% and 97.4%	66.4% and 72.8% and 47.7%	26.8% and 27.4% and 8.15%	28.5% and 27% and 10.6%
734 nM and 803 nM and 519 nM	CC(C)(O)C1CCC(Nc2ccc3ncc(-c4cccc(C(F)(F)F)c4)n3n2)CC1 (stereo not given)	106% and 103% and 98.1%	94% and 102% and 87.3%	89% and 96.2% and 80.1%	36.2% and 39.3% and 10.5%	2.72% and 3.1% and 0.35%	2.99% and 3.23% and 0.57%
> 10000 nM	COc1ncnc(C2CC2)c1-c1ncc2cnn(Cc3ccc(-c4nc(C(F)(F)F)cn4C(C)C)cc3)c2n1	101% and 105% and 104%	92.3% and 102% and 96%	101% and 105% and 104%	93.7% and 103% and 102%	104% and 99.2% and 97.6%	102% and 105% and 103%
